pIC50: −log10 of the molar value. “Also recorded” adds a separate entry of the source. Where a SMILES comes first, the peptide text is derived from it. Bridges are numbered along the chain shown (N, C = ends).

The target of data set [1] is T1, hNaV1.7 (Homo sapiens, UniProt Q15858).
T1 construct: expressed in transfected cells; host or cells: Xenopus oocytes (cRNA injection)
Kind of data set: Inhibition of hNaV1.7 currents, two-electrode voltage clamp in Xenopus oocytes. Format: cell-based. The conditions noted are these: TEVC; for pIC50 / Hill coefficient, inhibition of hNaV1.7: Xenopus oocytes, n = 5–7; for pIC50: 50-ms step to 0 mV from −80 mV every 10 s, ND96 pH 7.4 with 0.1% BSA, 20 °C–22 °C, Hill equation, mean ± S.E.M.; for Selectivity, hNaV1.7 versus rNaV1.2 and hNaV1.5 (in words): comparison with rNaV1.2 and hNaV1.5, Xenopus oocytes; for Hill coefficient, inhibition of hNaV1.7: from concentration-effect curve. The protocol:
(§1) Plasmids containing cloned rNaV1.2, hNaV1.5 and hNaV1.7 were linearised, then capped cRNAs were synthesised using a T7 mMESSAGE-mMACHINE transcription kit (Ambion, Austin, TX, USA). Stage V-VI oocytes were obtained from anesthetised Xenopus frogs and prepared as previously described. Oocytes were injected with 20–40 ng of cRNA (Nanoject 2000; WPI, Sarasota, FL, USA) and incubated for 2–6 days at 17 °C in ND96 solution (96 mM NaCl, 2 mM KCl, 1 mM CaCl2, 2 mM MgCl2, 5 mM HEPES, pH 7.4), supplemented with 2.5 mM sodium pyruvate, 50 μg/mL gentamicin and 2.5% horse serum prior to electrophysiological recordings. All work with animals was carried out in strict accordance with the recommendations in the Australian code of practice for the care and use of animals for scientific purposes. The protocol was approved by the Anatomical Biosciences group of the Animal Ethics Committee at The University of Queensland (Approval Number QBI/059/13/ARC/NHMRC).
(§2) Two-electrode voltage clamp (TEVC) recordings were performed at room temperature (20 °C–22 °C) under voltage-clamp (Axoclamp 900A, Molecular Devices, Sunnyvale, CA, USA) using two standard glass microelectrodes of 0.5–1 MΩ resistance when filled with 3 M KCl solution. Stimulation, data acquisition, and analysis were performed using pCLAMP software (Version 10, Molecular Devices, Sunnyvale, CA, USA). Peptide stock solutions were made up to 30 μM, and serial dilutions were prepared in ND96 solution (pH 7.4) containing 0.1% bovine serum albumin (BSA). Venom peptides were applied directly to the recording chamber to prevent adsorption to plastics.
(§3) NaV channel recordings were performed on oocytes clamped at −80 mV. Data were sampled at 20 kHz and filtered at 2 kHz. Inward sodium currents were elicited by a 50-ms depolarising step to 0 mV every 10 s. Once the peak current had stabilised (typically ~3 min), serial dilutions of peptides were applied to oocytes to obtain concentration-effect curves. Data were analysed using Clampfit 10.2 and Prism 6.0 (GrahPad Software, La Jolla, CA, USA, 2013). The Hill equation was fit to the data to obtain the half-maximal inhibitory concentration (IC50) values and Hill coefficient (nH). Data are presented as mean ± S.E.M. (n = number of oocytes). I-V relationships in the absence and presence of 300 nM and 1 μM peptide were obtained on oocytes clamped at −80 mV; families of currents were evoked by applying 50-ms depolarising steps from −60 mV to +70 mV with 10-mV increments every 10 s. After acquiring the control I–V curve, the first concentration of peptide was added and the inhibitory effect was allowed to plateau (a test pulse from −80 to 0 mV every 10 s) before obtaining an I–V curve in the presence of peptide. This was repeated for the second concentration of peptide. Data were normalised to the maximal peak current and analysed using Clampfit 10.2 and Prism 6.0.
For orientation: Two-electrode voltage clamp holds a large cell at a set potential and records current.

A further data set concerns the target T2, rNaV1.2 (Rattus norvegicus, UniProt P04775).
T2 construct: expressed in transfected cells; host or cells: Xenopus oocytes (cRNA injection)
Kind of data set: Inhibition of rNaV1.2 currents, two-electrode voltage clamp in Xenopus oocytes. The class given is cell-based. The conditions noted are these: TEVC; for inhibition at 1 µM: 1 μM peptide, 50-ms step to 0 mV from −80 mV every 10 s. The protocol: as §1, §2
as §3, with “After acquiring the control I–V curve, the first concentration of peptide was added and the inhibitory effect was allowed to plateau (a test pulse from −80 to 0 mV every 10 s) before obtaining an I–V curve in the presence of peptide. This was repeated for the second concentration of peptide.” left out

In the next data set the target is T3, hNaV1.5 (Homo sapiens, UniProt Q14524).
T3 construct: expressed in transfected cells; host or cells: Xenopus oocytes (cRNA injection)
The data set can be described thus: Inhibition of hNaV1.5 currents, two-electrode voltage clamp in Xenopus oocytes. The class given is cell-based. The conditions noted are these: TEVC. The protocol: as §1, §2
NaV channel recordings were performed on oocytes clamped at −80 mV. Data were sampled at 20 kHz and filtered at 2 kHz. Inward sodium currents were elicited by a 50-ms depolarising step to 0 mV every 10 s. […] Data were analysed using Clampfit 10.2 and Prism 6.0 (GrahPad Software, La Jolla, CA, USA, 2013). […] Data were normalised to the maximal peak current and analysed using Clampfit 10.2 and Prism 6.0.

In data set [2] the target is T1, hNaV1.7. Kind of data set: Current-voltage (I-V) relationship / V0.5 of activation of hNaV1.7. Conditions: 300 nM and 1 μM; n = 6. The class given is cell-based. The protocol: as §1, with “QBI/059/13/ARC/NHMRC). […]” for “QBI/059/13/ARC/NHMRC).”
NaV channel recordings were performed on oocytes clamped at −80 mV. […] Data were analysed using Clampfit 10.2 and Prism 6.0 (GrahPad Software, La Jolla, CA, USA, 2013). […] Data were normalised to the maximal peak current and analysed using Clampfit 10.2 and Prism 6.0.

Data set [3] relates to NaV1.2. The conditions noted are these: cited from earlier work.
A further data set relates to NaV1.5. Conditions: cited from earlier work.
A further data set relates to NaV channels. The conditions noted are these: cited from earlier work. An excerpt: Approximately 12% of spider toxins are C-terminally amidated. In addition to a possible role in peptide stability, C-terminal amidation can modulate biological activity. The 35-residue spider-venom peptide huwentoxin-IV (HwTx-IV) is a member of NaSpTx Family 1 isolated from venom of the tarantula Haplopelma schmidti (formerly known as Ornithoctonus huwena). Remarkably, native HwTx-IV with C-terminal amidation inhibits hNaV1.7 with is ~50-fold higher potency than a recombinant version with a C-terminal carboxylate group. […] Thus, we investigated the effects of Phlogius peptides on the current-voltage (I-V) relationship for hNaV1.7 using step-depolarisations ranging from −60 to +70 mV from a holding potential of −80 mV.

The subject of data set [4] is NaV1.2. The conditions noted are these: chimeric KV1.2/NaV1.2 channels; rat NaV1.2; cited from earlier work.
Data set [5] deals with sodium channel domain II voltage sensor. Conditions: gating modifier; cited from earlier work.
Data set [6] addresses T1, hNaV1.7. Conditions: cited from earlier work.
The test system of another data set is human NaV1.5. Conditions: cited from earlier work. An excerpt: (§4) Approximately 12% of spider toxins are C-terminally amidated. In addition to a possible role in peptide stability, C-terminal amidation can modulate biological activity. The 35-residue spider-venom peptide huwentoxin-IV (HwTx-IV) is a member of NaSpTx Family 1 isolated from venom of the tarantula Haplopelma schmidti (formerly known as Ornithoctonus huwena). Remarkably, native HwTx-IV with C-terminal amidation inhibits hNaV1.7 with is ~50-fold higher potency than a recombinant version with a C-terminal carboxylate group. Although not in the same peptide family as HwTx-IV (NaSpTx F ...

The next data set relates to human NaV1.8. The conditions noted are these: cited from earlier work.
Text: as §4

T2 sequence (P04775 whole entry): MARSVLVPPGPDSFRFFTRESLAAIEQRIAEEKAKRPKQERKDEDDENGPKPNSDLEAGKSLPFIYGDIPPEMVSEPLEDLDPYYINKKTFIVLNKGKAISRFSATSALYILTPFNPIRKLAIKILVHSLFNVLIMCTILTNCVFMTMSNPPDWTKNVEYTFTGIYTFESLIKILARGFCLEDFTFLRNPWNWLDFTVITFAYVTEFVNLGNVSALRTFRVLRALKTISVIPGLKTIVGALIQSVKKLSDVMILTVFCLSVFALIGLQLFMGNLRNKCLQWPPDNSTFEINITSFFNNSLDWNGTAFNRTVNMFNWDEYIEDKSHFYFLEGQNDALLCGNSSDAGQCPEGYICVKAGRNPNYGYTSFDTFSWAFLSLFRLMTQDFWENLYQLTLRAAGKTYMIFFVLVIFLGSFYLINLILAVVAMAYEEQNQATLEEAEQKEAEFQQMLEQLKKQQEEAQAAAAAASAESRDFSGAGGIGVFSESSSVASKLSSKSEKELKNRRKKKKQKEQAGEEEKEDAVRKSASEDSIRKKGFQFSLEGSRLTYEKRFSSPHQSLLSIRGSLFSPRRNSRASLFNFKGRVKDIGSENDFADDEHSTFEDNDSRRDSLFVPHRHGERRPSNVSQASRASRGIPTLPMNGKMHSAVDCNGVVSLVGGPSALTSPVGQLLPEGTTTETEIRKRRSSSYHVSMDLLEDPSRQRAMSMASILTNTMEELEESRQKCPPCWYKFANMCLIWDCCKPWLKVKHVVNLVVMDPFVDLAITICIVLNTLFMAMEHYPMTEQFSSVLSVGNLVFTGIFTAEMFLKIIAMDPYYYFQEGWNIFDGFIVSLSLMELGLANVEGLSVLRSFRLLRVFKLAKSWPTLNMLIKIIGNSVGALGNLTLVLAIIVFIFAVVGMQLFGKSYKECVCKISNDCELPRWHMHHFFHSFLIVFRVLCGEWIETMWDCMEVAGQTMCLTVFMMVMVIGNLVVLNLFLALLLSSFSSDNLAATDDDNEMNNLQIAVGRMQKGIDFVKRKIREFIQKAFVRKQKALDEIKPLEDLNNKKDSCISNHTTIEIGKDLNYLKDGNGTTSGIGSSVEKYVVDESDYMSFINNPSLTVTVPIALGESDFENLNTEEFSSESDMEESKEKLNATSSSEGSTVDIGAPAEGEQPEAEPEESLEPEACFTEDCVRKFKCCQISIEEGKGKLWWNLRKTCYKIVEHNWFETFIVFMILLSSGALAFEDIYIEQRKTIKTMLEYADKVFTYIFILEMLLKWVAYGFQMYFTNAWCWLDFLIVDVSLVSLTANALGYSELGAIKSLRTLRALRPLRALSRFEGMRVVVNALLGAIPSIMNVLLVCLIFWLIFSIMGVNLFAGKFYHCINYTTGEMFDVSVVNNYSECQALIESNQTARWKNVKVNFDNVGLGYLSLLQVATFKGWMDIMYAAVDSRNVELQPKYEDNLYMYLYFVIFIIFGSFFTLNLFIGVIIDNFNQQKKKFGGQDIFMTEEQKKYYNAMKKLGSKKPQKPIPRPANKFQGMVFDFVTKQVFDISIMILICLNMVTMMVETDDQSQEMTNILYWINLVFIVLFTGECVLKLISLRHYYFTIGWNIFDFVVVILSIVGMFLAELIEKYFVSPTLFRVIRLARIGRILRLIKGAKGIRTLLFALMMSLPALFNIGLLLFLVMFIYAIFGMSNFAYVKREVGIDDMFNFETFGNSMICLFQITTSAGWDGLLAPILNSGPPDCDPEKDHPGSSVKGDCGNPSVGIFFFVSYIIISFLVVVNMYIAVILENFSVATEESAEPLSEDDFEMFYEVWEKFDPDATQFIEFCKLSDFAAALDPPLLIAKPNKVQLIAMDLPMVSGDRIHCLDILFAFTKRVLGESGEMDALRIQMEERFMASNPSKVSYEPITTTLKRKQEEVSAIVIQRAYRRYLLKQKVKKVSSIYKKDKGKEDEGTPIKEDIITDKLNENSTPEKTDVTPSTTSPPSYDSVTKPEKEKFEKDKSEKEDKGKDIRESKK
T1 sequence (Q15858 whole entry): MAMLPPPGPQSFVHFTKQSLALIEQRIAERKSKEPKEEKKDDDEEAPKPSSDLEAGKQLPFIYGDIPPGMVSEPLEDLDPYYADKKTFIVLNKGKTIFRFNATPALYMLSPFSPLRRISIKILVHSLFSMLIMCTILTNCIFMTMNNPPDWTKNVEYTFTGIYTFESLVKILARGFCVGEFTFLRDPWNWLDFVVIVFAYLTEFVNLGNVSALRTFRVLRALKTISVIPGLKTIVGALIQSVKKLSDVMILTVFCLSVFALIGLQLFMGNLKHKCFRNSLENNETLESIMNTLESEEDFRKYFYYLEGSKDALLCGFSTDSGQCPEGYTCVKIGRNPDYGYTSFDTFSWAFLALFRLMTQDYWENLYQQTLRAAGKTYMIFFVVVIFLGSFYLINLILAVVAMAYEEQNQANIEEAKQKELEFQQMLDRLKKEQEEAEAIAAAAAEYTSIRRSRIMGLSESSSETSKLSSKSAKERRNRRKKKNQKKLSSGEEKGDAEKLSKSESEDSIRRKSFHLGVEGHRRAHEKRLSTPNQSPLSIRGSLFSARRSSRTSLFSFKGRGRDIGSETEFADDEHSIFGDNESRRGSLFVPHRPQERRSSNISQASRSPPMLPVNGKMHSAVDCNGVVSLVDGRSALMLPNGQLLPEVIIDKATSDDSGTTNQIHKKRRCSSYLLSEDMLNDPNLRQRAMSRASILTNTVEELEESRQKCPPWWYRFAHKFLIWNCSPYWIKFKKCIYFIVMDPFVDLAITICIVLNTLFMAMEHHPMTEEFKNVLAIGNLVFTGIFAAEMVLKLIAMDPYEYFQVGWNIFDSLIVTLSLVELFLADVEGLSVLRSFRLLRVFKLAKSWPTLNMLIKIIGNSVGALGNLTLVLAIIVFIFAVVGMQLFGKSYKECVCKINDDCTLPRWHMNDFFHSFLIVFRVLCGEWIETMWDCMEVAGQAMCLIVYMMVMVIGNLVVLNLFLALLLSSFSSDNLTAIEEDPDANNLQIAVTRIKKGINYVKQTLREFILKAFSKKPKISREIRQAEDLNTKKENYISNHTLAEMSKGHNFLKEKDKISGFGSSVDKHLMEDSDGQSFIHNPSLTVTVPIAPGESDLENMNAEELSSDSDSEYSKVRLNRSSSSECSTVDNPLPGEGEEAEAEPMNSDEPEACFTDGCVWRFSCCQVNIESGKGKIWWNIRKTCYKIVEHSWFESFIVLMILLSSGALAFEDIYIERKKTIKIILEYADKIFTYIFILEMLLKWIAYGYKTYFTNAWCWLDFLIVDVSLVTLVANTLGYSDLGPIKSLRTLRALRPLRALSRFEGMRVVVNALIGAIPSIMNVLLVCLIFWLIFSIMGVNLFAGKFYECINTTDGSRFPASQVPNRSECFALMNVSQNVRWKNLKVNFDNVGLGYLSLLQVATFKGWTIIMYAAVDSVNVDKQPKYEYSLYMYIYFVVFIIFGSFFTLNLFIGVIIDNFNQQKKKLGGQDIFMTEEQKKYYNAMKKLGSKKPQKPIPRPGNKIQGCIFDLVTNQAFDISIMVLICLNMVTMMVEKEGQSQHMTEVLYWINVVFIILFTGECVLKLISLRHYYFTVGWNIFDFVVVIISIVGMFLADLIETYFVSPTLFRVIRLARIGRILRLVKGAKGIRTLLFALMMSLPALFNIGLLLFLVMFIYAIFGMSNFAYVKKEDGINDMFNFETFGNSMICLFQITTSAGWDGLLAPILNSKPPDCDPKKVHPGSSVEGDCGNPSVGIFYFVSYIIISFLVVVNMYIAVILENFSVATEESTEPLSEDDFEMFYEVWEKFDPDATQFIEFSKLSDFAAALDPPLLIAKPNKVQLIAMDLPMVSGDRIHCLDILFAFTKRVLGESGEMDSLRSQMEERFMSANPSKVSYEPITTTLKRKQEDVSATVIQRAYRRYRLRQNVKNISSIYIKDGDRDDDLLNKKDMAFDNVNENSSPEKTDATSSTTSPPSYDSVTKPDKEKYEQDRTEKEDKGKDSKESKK

A word on the pIC50: it is the IC50 on a negative log10 scale, so that one unit is a factor of ten. A word on the inhibition: it is the change of the read-out against control, counted positive when it falls. Lower therefore signals a response near the control. As to `CC(C)C[C@@H]1NC(=O)[C@H](CC(C)C)NC(=O)[C@H](CCC(=O)O)NC(=O)[C@H](CCCNC(=N)N)NC(=O)[C@@H](NC(=O)[C@H](C)N)CSSC[C@@H]2NC(=O)[C@@H]3CSSC[C@@H](C(=O)N[C@H](C(=O)N[C@@H](Cc4c[nH]c5ccccc45)C(=O)N[C@@H](CC(=O)O)C(=O)N[C@@H](Cc4c[nH]c5ccccc45)C(=O)N[C@H](C(=O)N[C@@H](Cc4ccccc4)C(N)=O)[C@@H](C)O)C(C)C)NC(=O)[C@H](Cc4c[nH]cn4)NC(=O)[C@H](Cc4ccc(O)cc4)NC(=O)[C@@H]4CCCN4C(=O)[C@H](Cc4c[nH]c5ccccc45)NC(=O)[C@H](CCCCN)NC(=O)[C@H](CCCCN)NC(=O)[C@H](CCCNC(=N)N)NC(=O)[C@H](CSSC[C@H](NC(=O)CNC(=O)CNC1=O)C(=O)N[C@@H](CO)C(=O)N[C@@H](CCCCN)C(=O)N[C@@H](CC(=O)O)C(=O)N[C@@H](CO)C(=O)N[C@@H](CC(=O)O)C(=O)N3)NC(=O)[C@H](CCC(=O)O)NC(=O)[C@H](CC(C)C)NC(=O)[C@H](Cc1c[nH]cn1)NC(=O)[C@H](C)NC2=O` [Phlo1b] (H-ACRELLGGCSKDSDCCAHLECRKKWPYHCVWDWTF-NH2; disulfide 2-16, 9-21, 15-29 (inferred); N-terminus assumed), on hNaV1.7 [1], the pIC50 was 6.44; the “Selectivity, hNaV1.7 versus rNaV1.2 and hNaV1.5 (in words)” value is “inhibit hNaV1.7 more potently than rNaV1.2 and hNaV1.5”; the “Hill coefficient, inhibition of hNaV1.7” value is 1.04. On rNaV1.2, the inhibition at 1 µM stood at 37% and the “Effect on rNaV1.2 (in words)” value is on record as “only minor inhibitory activity; also recorded: slightly more potent at rNaV1.2”. Further, at hNaV1.5, the “Effect on hNaV1.5 (in words)” value is listed as “only minor inhibitory activity; also recorded: a similar effect as Phlo1a at hNaV1.5”. In addition, the “Effect on I-V relationship of hNaV1.7 (in words)” value at hNaV1.7 [2] was “concentration-dependent, depolarising shifts in the I-V relationship for hNaV1.7”.

Turning to “ProTx-II: most potent blocker of hNaV1.7 within NaSpTx family 3”, the pIC50 in the data set with NaV1.2 [3] is 7.39; in the data set on NaV1.5, 7.10. Moreover, the “Binding to NaV1.5 receptor site 4 (in words)” value in the data set on NaV1.5 (mutagenesis study of NaV1.5) is “does not bind to receptor site 4 on the domain II voltage sensor”. Besides, the “Effect on NaV1.5 gating (in words)” value with NaV1.5 (voltage-dependence of activation) is “shifts the voltage-dependence of activation of NaV1.5 to more positive potentials”. For the same molecule, the “Activity (channel type), NaSpTx3 alignment” value with NaV channels (Figure 8C annotation, no reference given) was “Nav”. The “Voltage sensors bound (in words)” value with NaV1.2 [4] was “binds to the voltage sensors in domains I, II and IV of rat NaV1.2; also recorded: binding to the voltage sensors in domains I, II (receptor site 4), and IV (receptor site 3) of NaV1.2”. Moreover, the “Mechanism of sodium conductance reduction (in words)” value in [5] was “reduces sodium conductance by trapping the domain II voltage sensor in the closed state”.

For the molecule `CC[C@H](C)[C@H](NC(=O)[C@@H](NC(=O)[C@H](Cc1c[nH]c2ccccc12)NC(=O)[C@H](CC(=O)O)NC(=O)[C@H](Cc1c[nH]c2ccccc12)NC(=O)[C@@H](NC(=O)[C@@H]1CSSC[C@@H]2NC(=O)[C@H](CC(=O)O)NC(=O)[C@H](CO)NC(=O)[C@H](CC(=O)O)NC(=O)[C@H](CCCCN)NC(=O)[C@H](CO)NC(=O)[C@@H]3CSSC[C@H](NC(=O)[C@H](CCC(=O)O)NC(=O)[C@H](CC(C)C)NC(=O)[C@H](Cc4c[nH]cn4)NC(=O)[C@H](C)NC(=O)[C@H](CSSC[C@H](NC(=O)[C@H](C)N)C(=O)N[C@@H](CCCNC(=N)N)C(=O)N[C@@H](CCC(=O)O)C(=O)N[C@@H](CC(C)C)C(=O)N[C@@H](CC(C)C)C(=O)NCC(=O)NCC(=O)N3)NC2=O)C(=O)N[C@@H](CCCNC(=N)N)C(=O)N[C@@H](CCCCN)C(=O)N[C@@H](CCCCN)C(=O)N[C@@H](Cc2c[nH]c3ccccc23)C(=O)N2CCC[C@H]2C(=O)N[C@@H](Cc2ccc(O)cc2)C(=O)N[C@@H](Cc2c[nH]cn2)C(=O)N1)C(C)C)[C@@H](C)O)C(N)=O` [Phlo1a] (H-ACRELLGGCSKDSDCCAHLECRKKWPYHCVWDWTI-NH2; disulfide 2-16, 9-21, 15-29 (inferred); N-terminus assumed), on hNaV1.7 [1], the pIC50 was 6.34; the “Selectivity, hNaV1.7 versus rNaV1.2 and hNaV1.5 (in words)” value was “inhibited rNaV1.2 and hNaV1.5 much less potently than hNaV1.7; also recorded: inhibit hNaV1.7 more potently than rNaV1.2 and hNaV1.5; also recorded: high level of selectivity for NaV1.7 over NaV1.2 and NaV1.5”; the “Hill coefficient, inhibition of hNaV1.7” value stood at 0.87. At rNaV1.2, the inhibition at 1 µM was under 20% and the “Effect on rNaV1.2 (in words)” value is recorded as “only minor inhibitory activity”. Moreover, the inhibition at 1 µM at hNaV1.5 (1 μM peptide, 50-ms step to 0 mV from −80 mV every 10 s) is under 20%. Moreover, the “Effect on hNaV1.5 (in words)” value at hNaV1.5 is on record as “only minor inhibitory activity”. For the same molecule, the “Effect on I-V relationship of hNaV1.7 (in words)” value at hNaV1.7 [2] was “concentration-dependent, depolarising shifts in the I-V relationship for hNaV1.7”.

As for HwTx-IV, the “Fold higher potency at hNaV1.7, native amidated vs recombinant C-terminal carboxylate” value in the data set with hNaV1.7 [6] (native HwTx-IV (C-terminal amide) versus recombinant version with C-terminal carboxylate, no reference printed at the sentence (isolation: ref 24)) is reported as ~ 50 fold.

As for ProTx-I, at hNaV1.7 [6], the “Blockade of human NaV1.7 (in words)” value was “potent blocker”. Moreover, the “Effect on NaV channel activation (in words)” value with NaV channels is given as “inhibit NaV channels by shifting the threshold for channel activation to more positive potentials”. Besides, the “Blockade of human NaV1.5 (in words)” value with human NaV1.5 is reported as “potent blocker”. Also, the “Blockade of human NaV1.8 (in words)” value with human NaV1.8 is “potent blocker”.

The values are drawn from paper PMC4516925, “Three Peptide Modulators of the Human Voltage-Gated Sodium Channel 1.7, an Important Analgesic Target, from the Venom of an Australian Tarantula” (Toxins, 2015).
